A short description of this data set: CHI Log D procedure. To be noted: for CHI Log D: pH 7.4; for chromatographic logD: pH 7.4, CHI Log D. The data set is classed as physicochemical.

Regarding `CC(=O)N[C@@H](Cc1ccccc1)C(=O)N[C@@H](CC(=O)O)C(=O)N[C@@H](C)C(=O)N[C@]1(C)CCCN(C)C(=O)OCC=CCCCC[C@@](C)(C(=O)N[C@@H](Cc2ccccc2)C(=O)N[C@@H](Cc2c[nH]c3ccccc23)C(=O)N[C@@H](CCC(N)=O)C(N)=O)NC(=O)[C@H](C(C)C)NC(=O)[C@H](Cc2ccccc2)NC(=O)[C@H](C)NC(=O)[C@H](C)NC(=O)[C@H](CC(=O)O)NC(=O)[C@H](CC(=O)O)NC1=O` [I-28, Ac-Phe-Asp-Ala-ReN-Asp-Asp-Ala-Ala-Phe-Val-S6-Phe-Trp-Gln-NH2], the “CHI Log D” value came out at 1.219.

With `CC(=O)N[C@@H](Cc1ccccc1)C(=O)N[C@@H](CC(=O)O)C(=O)N[C@@H](C)C(=O)NC12CN(C1)C(=O)OCC=CCCCCC[C@@](C)(C(=O)N[C@@H](Cc1ccccc1)C(=O)N[C@@H](Cc1c[nH]c3ccccc13)C(=O)N[C@@H](CCC(N)=O)C(N)=O)NC(=O)[C@H](C(C)C)NC(=O)[C@H](Cc1ccccc1)NC(=O)[C@H](C)NC(=O)[C@H](C)NC(=O)[C@H](CC(=O)O)NC(=O)[C@H](CC(=O)O)NC2=O` [I-32, Ac-Phe-Asp-Ala-Az-Asp-Asp-Ala-Ala-Phe-Val-S7-Phe-Trp-Gln-NH2], the “CHI Log D” value came out at 1.243.

For `CC(=O)N[C@@H](Cc1ccccc1)C(=O)N[C@@H](CC(=O)O)C(=O)N[C@@H](C)C(=O)NC12CN(C1)C(=O)OCC=CCCCCC[C@@](C)(C(=O)N[C@@H](Cc1ccccc1)C(=O)N[C@@H](Cc1c[nH]c3ccccc13)C(=O)N[C@@H](CCC(N)=O)C(N)=O)NC(=O)[C@H](C(C)C)NC(=O)[C@H](Cc1ccccc1)NC(=O)[C@H](C)NC(=O)[C@H](C)NC(=O)[C@H](CC(=O)O)NC(=O)[C@H](CC(=O)O)NC2=O` [I-33, Ac-Phe-Asp-Ala-Az-Asp-Asp-Ala-Ala-Phe-Val-S7-Phe-Trp-Gln-NH2], the “CHI Log D” value stood at 1.228.

As to `CC(=O)N[C@@H](Cc1ccccc1)C(=O)N[C@@H](CC(=O)O)C(=O)N[C@@H](C)C(=O)N[C@]1(C)CCCCCCC=CCOC(=O)N(C)C[C@@](C)(C(=O)N[C@@H](Cc2ccccc2)C(=O)N[C@@H](Cc2c[nH]c3ccccc23)C(=O)N[C@@H](CCC(N)=O)C(N)=O)NC(=O)[C@H](C(C)C)NC(=O)[C@H](Cc2ccccc2)NC(=O)[C@H](C)NC(=O)[C@H](C)NC(=O)[C@H](CC(=O)O)NC(=O)[C@H](CC(=O)O)NC1=O` [I-34, Ac-Phe-Asp-Ala-R8-Asp-Asp-Ala-Ala-Phe-Val-SgN-Phe-Trp-Gln-NH2], the chromatographic logD is 1.32.

With `CC(=O)N[C@@H](Cc1ccccc1)C(=O)N[C@@H](CC(=O)O)C(=O)N[C@@H](C)C(=O)N[C@]1(C)CCC=CCOC(=O)N(C)CCC[C@@](C)(C(=O)N[C@@H](Cc2ccccc2)C(=O)N[C@@H](Cc2c[nH]c3ccccc23)C(=O)N[C@@H](CCC(N)=O)C(N)=O)NC(=O)[C@H](C(C)C)NC(=O)[C@H](Cc2ccccc2)NC(=O)[C@H](C)NC(=O)[C@H](C)NC(=O)[C@H](CC(=O)O)NC(=O)[C@H](CC(=O)O)NC1=O` [I-36, Ac-Phe-Asp-Ala-R4-Asp-Asp-Ala-Ala-Phe-Val-SeN-Phe-Trp-Gln-NH2], the chromatographic logD was 1.13.

`CC(=O)N[C@@H](Cc1ccccc1)C(=O)N[C@@H](CC(=O)O)C(=O)N[C@@H](C)C(=O)N[C@]1(C)CCCC=CCOC(=O)N(C)CC[C@@](C)(C(=O)N[C@@H](Cc2ccccc2)C(=O)N[C@@H](Cc2c[nH]c3ccccc23)C(=O)N[C@@H](CCC(N)=O)C(N)=O)NC(=O)[C@H](C(C)C)NC(=O)[C@H](Cc2ccccc2)NC(=O)[C@H](C)NC(=O)[C@H](C)NC(=O)[C@H](CC(=O)O)NC(=O)[C@H](CC(=O)O)NC1=O` [I-37, Ac-Phe-Asp-Ala-R5-Asp-Asp-Ala-Ala-Phe-Val-SdN-Phe-Trp-Gln-NH2]: the chromatographic logD is 1.16.

Regarding `CC(=O)N[C@@H](Cc1ccccc1)C(=O)N[C@@H](CC(=O)O)C(=O)N[C@@H](C)C(=O)N[C@]1(C)CCCCCC=CCOC(=O)N2CC(C(=O)N[C@@H](Cc3ccccc3)C(=O)N[C@@H](Cc3c[nH]c4ccccc34)C(=O)N[C@@H](CCC(N)=O)C(N)=O)(C2)NC(=O)[C@H](C(C)C)NC(=O)[C@H](Cc2ccccc2)NC(=O)[C@H](C)NC(=O)[C@H](C)NC(=O)[C@H](CC(=O)O)NC(=O)[C@H](CC(=O)O)NC1=O` [I-38, Ac-Phe-Asp-Ala-R7-Asp-Asp-Ala-Ala-Phe-Val-Az-Phe-Trp-Gln-NH2], the chromatographic logD was 1.21.

`CC(=O)N[C@@H](Cc1ccccc1)C(=O)N[C@@H](CC(=O)O)C(=O)N[C@@H](C)C(=O)N[C@]1(C)CCN(C)C(=O)OCC=CCC[C@@](C)(C(=O)N[C@@H](Cc2ccccc2)C(=O)N[C@@H](Cc2c[nH]c3ccccc23)C(=O)N[C@@H](CCC(N)=O)C(N)=O)NC(=O)[C@H](C(C)C)NC(=O)[C@H](Cc2ccccc2)NC(=O)[C@H](C)NC(=O)[C@H](C)NC(=O)[C@H](CC(=O)O)NC(=O)[C@H](CC(=O)O)NC1=O` [I-42, Ac-Phe-Asp-Ala-RdN-Asp-Asp-Ala-Ala-Phe-Val-S4-Phe-Trp-Gln-NH2]: the “CHI Log D” value stood at 1.09.

In the case of `CC(=O)N[C@@H](Cc1ccccc1)C(=O)N[C@@H](CC(=O)O)C(=O)N[C@]1(C)CCCCCCC=CCOC(=O)N2CC[C@@](C(=O)N[C@@H](C)C(=O)N[C@@H](Cc3ccccc3)C(=O)N[C@@H](Cc3c[nH]c4ccccc34)C(=O)N[C@@H](CCC(N)=O)C(N)=O)(C2)NC(=O)[C@H](Cc2ccccc2)NC(=O)[C@H](C)NC(=O)[C@H](C)NC(=O)[C@H](CC(=O)O)NC(=O)[C@H](CC(=O)O)NC(=O)[C@H](C)NC1=O` [I-51, Ac-Phe-Asp-R8-Ala-Asp-Asp-Ala-Ala-Phe-PyrS-Ala-Phe-Trp-Gln-NH2], the chromatographic logD worked out at 1.25.

In the case of `CC(=O)N[C@@H](Cc1ccccc1)C(=O)N[C@@H](CC(=O)O)C(=O)N[C@@H](C)C(=O)N[C@]1(C)CCCCCCC=CCOC(=O)N2CC[C@@](C(=O)N[C@@H](Cc3ccccc3)C(=O)N[C@@H](Cc3c[nH]c4ccccc34)C(=O)N[C@@H](CCC(N)=O)C(N)=O)(C2)NC(=O)[C@H](C(C)C)NC(=O)[C@H](Cc2ccccc2)NC(=O)[C@H](C)NC(=O)[C@H](C)NC(=O)[C@H](CCC(N)=O)NC(=O)[C@H](CC(=O)O)NC1=O` [I-59, Ac-Phe-Asp-Ala-R8-Asp-Gln-Ala-Ala-Phe-Val-PyrS-Phe-Trp-Gln-NH2], the “CHI Log D” value is listed as 1.531.

On to `CCCC[C@@H]1NC(=O)[C@H](CC(=O)O)NC(=O)[C@](C)(NC(=O)[C@@H](NC(=O)[C@H](CC(=O)O)NC(=O)[C@H](C)NC(C)=O)[C@@H](C)CC)CCN(C)C(=O)OCC=CCCCCC[C@@](C)(C(=O)N[C@@H](Cc2ccccc2)C(=O)N[C@@H](Cc2c[nH]c3ccccc23)C(=O)N[C@@H](Cc2c[nH]cn2)C(N)=O)NC(=O)[C@H](CCC(N)=O)NC(=O)[C@H](Cc2ccccc2)NC(=O)[C@H](C)NC(=O)[C@H](C)NC1=O` [I-68, Ac-Ala-Asp-Ile-RdN-Asp-nLeu-Ala-Ala-Phe-Gln-S7-Phe-Trp-His-NH2], for which the “CHI Log D” value stood at 1.553.

`CCCC[C@@H]1NC(=O)[C@H](C)NC(=O)[C@H](C)NC(=O)[C@H](CC(=O)O)NC(=O)[C@H](CC(=O)O)NC(=O)[C@](C)(NC(=O)[C@H](C)NC(=O)[C@H](CC(=O)O)NC(=O)[C@H](Cc2ccccc2)NC(C)=O)CCCCCCC=CCOC(=O)N2CC[C@@](C(=O)N[C@@H](Cc3ccccc3)C(=O)N[C@@H](Cc3c[nH]c4ccccc34)C(=O)N[C@@H](CCC(N)=O)C(N)=O)(C2)NC(=O)[C@H](C(C)C)NC1=O` [I-76, Ac-Phe-Asp-Ala-R8-Asp-Asp-Ala-Ala-nLeu-Val-PyrS-Phe-Trp-Gln-NH2]: the chromatographic logD is 1.2.

Turning to `CC(=O)N[C@@H](Cc1ccccc1)C(=O)N[C@@H](CC(=O)O)C(=O)N[C@@H](C)C(=O)N[C@]1(C)CCCCCCC=CCOC(=O)N2CC[C@@](C(=O)N[C@@H](Cc3ccccc3)C(=O)N[C@@H](Cc3c[nH]c4ccccc34)C(=O)N[C@@H](CCC(N)=O)C(N)=O)(C2)NC(=O)[C@H](C(C)C)NC(=O)[C@H](Cc2cccc(F)c2)NC(=O)[C@H](C)NC(=O)[C@H](C)NC(=O)[C@H](CC(=O)O)NC(=O)[C@H](CC(=O)O)NC1=O` [I-77, Ac-Phe-Asp-Ala-R8-Asp-Asp-Ala-Ala-3FF-Val-PyrS-Phe-Trp-Gln-NH2], the chromatographic logD worked out at 1.28.

With `CC(=O)N[C@@H](Cc1ccccc1)C(=O)N[C@@H](CC(=O)O)C(=O)N[C@@H](C)C(=O)N[C@]1(C)CCCCCCC=CCOC(=O)N2CC[C@@](C(=O)N[C@@H](Cc3ccccc3)C(=O)N[C@@H](Cc3c[nH]c4ccccc34)C(=O)N[C@@H](CCC(N)=O)C(N)=O)(C2)NC(=O)[C@H](C(C)C)NC(=O)[C@H](Cc2ccccn2)NC(=O)[C@H](C)NC(=O)[C@H](C)NC(=O)[C@H](CC(=O)O)NC(=O)[C@H](CC(=O)O)NC1=O` [I-86, Ac-Phe-Asp-Ala-R8-Asp-Asp-Ala-Ala-2PyrA-Val-PyrS-Phe-Trp-Gln-NH2], the chromatographic logD is 1.24.

As for `CC(=O)N[C@@H](Cc1ccccc1)C(=O)N[C@@H](CC(=O)O)C(=O)N[C@@H](C)C(=O)N[C@]1(C)CCCCCCC=CCOC(=O)N2CC[C@@](C(=O)N[C@@H](Cc3ccccc3)C(=O)N[C@@H](Cc3c[nH]c4ccccc34)C(=O)N[C@@H](CCC(N)=O)C(N)=O)(C2)NC(=O)[C@H](C(C)C)NC(=O)[C@H](Cc2ccc(C(N)=O)cc2)NC(=O)[C@H](C)NC(=O)[C@H](C)NC(=O)[C@H](CC(=O)O)NC(=O)[C@H](CC(=O)O)NC1=O` [I-92, Ac-Phe-Asp-Ala-R8-Asp-Asp-Ala-Ala-4CBMF-Val-PyrS-Phe-Trp-Gln-NH2], the “CHI Log D” value came out at 1.199.

On to `CC(=O)N[C@@H](Cc1ccccc1)C(=O)N[C@@H](CC(=O)O)C(=O)N[C@@H](C)C(=O)N[C@]1(C)CCCCCCC=CCOC(=O)N2CC[C@@](C(=O)N[C@@H](Cc3ccccc3)C(=O)N[C@@H](Cc3c[nH]c4ccccc34)C(=O)N[C@@H](CCC(N)=O)C(N)=O)(C2)NC(=O)[C@H](C(C)C)NC(=O)[C@H](Cc2ccccc2)NC(=O)[C@H](C)NC(=O)[C@H](C)NC(=O)[C@H](Cc2ccccc2)NC(=O)[C@H](CC(=O)O)NC1=O` [I-100, Ac-Phe-Asp-Ala-R8-Asp-Phe-Ala-Ala-Phe-Val-PyrS-Phe-Trp-Gln-NH2], for which the “CHI Log D” value is on record as 1.993.

Molecule `CC(=O)N[C@@H](Cc1ccccc1)C(=O)N[C@@H](CC(=O)O)C(=O)N[C@@H](C)C(=O)N[C@]1(C)CCCCCCC=CCOC(=O)N2CC[C@@](C(=O)N[C@@H](Cc3cccc(C(N)=O)c3)C(=O)N[C@@H](Cc3c[nH]c4ccccc34)C(=O)N[C@@H](CCC(N)=O)C(N)=O)(C2)NC(=O)[C@H](C(C)C)NC(=O)[C@H](Cc2ccccc2)NC(=O)[C@H](C)NC(=O)[C@H](C)NC(=O)[C@H](CC(=O)O)NC(=O)[C@H](CC(=O)O)NC1=O` [I-107, Ac-Phe-Asp-Ala-R8-Asp-Asp-Ala-Ala-Phe-Val-PyrS-3CBMF-Trp-Gln-NH2] gave a chromatographic logD of 1.

For the origin of these results see patent US20240116985A1, “STAPLED PEPTIDES AND METHODS THEREOF” (priority 2020, published 2024).
